Converted amounts (≈) assume the structure as drawn.
Tests used:
Test in all cases: In vitro antibacterial activity (MIC)
Type in all cases: cell-based
Serratia marcescens = test system: Serratia marcescens
Description: (§1) The compound of formula I, wherein R^1 is hydrogen, and salts thereof, are active as antibacterial agents of medium potency both in vitro and in vivo, and the compounds of formula I, wherein R^1 is an ester-forming residue readily hydrolyzable in vivo are active as antibacterial agents of medium potency in vivo.

Klebsiella pneumoniae = test system: Klebsiella pneumoniae
Description: as §1

Citrobacter freundii = test system: Citrobacter freundii
Description: as §1

Hemophilus influenzae = conditions: Haemophilus influenzae
Description: as §1

Escherichia coli = test system: Escherichia coli
Description: as §1

Staphylococcus epidermis = test system: Staphylococcus epidermis
Description: as §1

Pseudomonas aeruginosa = test system: Pseudomonas aeruginosa
Description: as §1

Proteus mirabilis = test system: Proteus mirabilis
Description: as §1

Enterobacter clocae = test system: Enterobacter clocae
Description: as §1

Neisseria gonorrhoeae = test system: Neisseria gonorrhoeae
Description: as §1

Providencia = test system: Providencia
Description: as §1

Pseudomonas putida = test system: Pseudomonas putida
Description: as §1

Proteus morgani = test system: Proteus morgani
Description: as §1

Salmonella typhimurium = conditions: Salmonella enterica
Description: as §1

Pasteurella multocida = test system: Pasteurella multocida
Description: as §1

Staphylococcus aureus = test system: Staphylococcus aureus
Description: as §1

Enterobacter aerogenes = conditions: Klebsiella aerogenes
Description: as §1

Streptococcus faecalis = conditions: Enterococcus faecalis
Description: as §1

Streptococcus pyogenes = test system: Streptococcus pyogenes
Description: as §1

CC1(C)[C@H](C(=O)O)N2C(=O)C[C@H]2S1(=O)=O [Penicillanic Acid 1,1-Dioxide]
MIC (Serratia marcescens): 100 µg/mL (≈ 429 µM)
MIC (Klebsiella pneumoniae): 50 µg/mL (≈ 214 µM)
MIC (Citrobacter freundii): 50 µg/mL (≈ 214 µM)
MIC (Hemophilus influenzae): 50 µg/mL (≈ 214 µM)
MIC (Escherichia coli): 50 µg/mL (≈ 214 µM)
MIC (Staphylococcus epidermis): 200 µg/mL (≈ 857 µM)
MIC (Pseudomonas aeruginosa): 200 µg/mL (≈ 857 µM)
MIC (Proteus mirabilis): 100 µg/mL (≈ 429 µM)
MIC (Enterobacter clocae): 100 µg/mL (≈ 429 µM)
MIC (Neisseria gonorrhoeae): 0.312 µg/mL (≈ 1.34 µM)
MIC (Providencia): 100 µg/mL (≈ 429 µM)
MIC (Pseudomonas putida): 200 µg/mL (≈ 857 µM)
MIC (Proteus morgani): 100 µg/mL (≈ 429 µM)
MIC (Salmonella typhimurium): 50 µg/mL (≈ 214 µM)
MIC (Pasteurella multocida): 50 µg/mL (≈ 214 µM)
MIC (Staphylococcus aureus): 100 µg/mL (≈ 429 µM)
MIC (Enterobacter aerogenes): 25 µg/mL (≈ 107 µM)
MIC (Streptococcus faecalis): 200 µg/mL (≈ 857 µM)
MIC (Streptococcus pyogenes): 100 µg/mL (≈ 429 µM)

Source: US4420426A, “6-Alpha-halopenicillanic acid 1,1-dioxides” (Pfizer Inc., priority 1980, dated 1983)
